Experimental data as given in patent US12376538B2, “Rice cultivar designated ‘CLL17’” (Board of Supervisors of Louisiana State University and …, priority 2020, dated 2025).

Test system: ‘CLL17’ rice plant
Test: Herbicide tolerance and susceptibility of 'CLL17' rice plants
Format: in vivo
Conditions: at levels of the herbicide that would normally inhibit the growth of a rice plant
Source text: The variety is resistant to imidazolinone herbicides. The herbicide resistance (or herbicide tolerance) profile is essentially the same as that of ‘CL161’ through common ancestry. The herbicide tolerance allows ‘CLL17,’ its hybrids, and derived varieties to be used with certain imidazolinone or sulfonylurea herbicides, including among others the imidazolinone herbicides imazethapyr and imazamox, for the selective control of weeds including red rice. See generally U.S. Pat. No. 6,943,280.
Among others, the herbicide tolerance and susceptibility characteristics of ‘CLL17’ include or are expected to include the following.

CCOC(=O)c1ccccc1S(=O)(=O)NC(=O)Nc1nc(Cl)cc(OC)n1 [chlorimuron ethyl]
herbicide tolerance / susceptibility of ‘CLL17’ (resistant or sensitive): sensitive

COc1cc(OC)nc(NC(=O)NS(=O)(=O)c2ncccc2C(=O)N(C)C)n1 [nicosulfuron]
herbicide tolerance / susceptibility of ‘CLL17’ (resistant or sensitive): resistant

CC(C)C1(C)N=C(c2ncccc2C(=O)O)NC1=O (stereo not drawn) [imazapyr]
herbicide tolerance / susceptibility of ‘CLL17’ (resistant or sensitive): resistant

COC(=O)c1ccccc1S(=O)(=O)NC(=O)Nc1nc(C)cc(C)n1 [sulfometuron methyl]
herbicide tolerance / susceptibility of ‘CLL17’ (resistant or sensitive): sensitive

COCc1cnc(C2=NC(C)(C(C)C)C(=O)N2)c(C(=O)O)c1 (stereo not drawn) [imazamox]
herbicide tolerance / susceptibility of ‘CLL17’ (resistant or sensitive): resistant

Cc1cnc(C2=NC(=O)C(C)(C(C)C)N2)c(C(=O)O)c1 (stereo not drawn) [imazapic]
herbicide tolerance / susceptibility of ‘CLL17’ (resistant or sensitive): resistant

CC(C)C1(C)N=C(c2nc3ccccc3cc2C(=O)O)NC1=O (stereo not drawn) [imazaquin]
herbicide tolerance / susceptibility of ‘CLL17’ (resistant or sensitive): resistant

COC(=O)c1ccccc1S(=O)(=O)NC(=O)N(C)c1nc(C)nc(OC)n1 [tribenuron methyl]
herbicide tolerance / susceptibility of ‘CLL17’ (resistant or sensitive): resistant

CCS(=O)(=O)c1cccnc1S(=O)(=O)NC(=O)Nc1nc(OC)cc(OC)n1 [rimsulfuron]
herbicide tolerance / susceptibility of ‘CLL17’ (resistant or sensitive): sensitive

COC(=O)c1sccc1S(=O)(=O)NC(=O)Nc1nc(C)nc(OC)n1 [thifensulfuron methyl]
herbicide tolerance / susceptibility of ‘CLL17’ (resistant or sensitive): resistant

COC(=O)c1ccccc1S(=O)(=O)NC(=O)Nc1nc(C)nc(OC)n1 [metsulfuron methyl]
herbicide tolerance / susceptibility of ‘CLL17’ (resistant or sensitive): resistant

CCc1cnc(C2=NC(C)(C(C)C)C(=O)N2)c(C(=O)O)c1 (stereo not drawn) [imazethapyr]
herbicide tolerance / susceptibility of ‘CLL17’ (resistant or sensitive): resistant
